According to ChEMBL document CHEMBL6109088 (J Med Chem, 2025):

Assays:
in vivo = conditions: rat, po
in vitro [1] = conditions: dog, MDCK
in vitro [2] = conditions: human, liver microsomes
physchem = conditions: octanol/water
SARS-CoV-2 = test: microbe, parasite or virus in culture; conditions: Severe acute respiratory syndrome coronavirus 2, USA-WA1/2020, Vero C1008

SMILES | bioavailability (in vivo) [%] | Papp A→B (in vitro [1]) [×10⁻⁶ cm/s] | microsomal CLint (in vitro [2]) [µL/min/mg] | logD (physchem) | EC50 (SARS-CoV-2) [nM]
COc1cccc2[nH]c(C(=O)N[C@@H](CC(C)(C)C)C(=O)N[C@@H](C[C@@H]3CCNC3=O)C(=O)c3nc4ccccc4s3)cc12 | < 1 | 4.3 | 350 | 4 | 383
CC(C)[C@H](NC(=O)C(F)(F)F)C(=O)N1C[C@H]2[C@@H]([C@H]1C(=O)N[C@@H](C[C@@H]1CCNC1=O)C(=O)c1noc(C(C)(C)C)n1)C2(C)C |  | 0.5 | < 7 |  | 625
CC(=O)N[C@H](C(=O)N1C[C@H]2[C@@H]([C@H]1C(=O)N[C@@H](C[C@@H]1CCNC1=O)C(=O)c1nc3ccccc3s1)C2(C)C)C(C)(C)C |  | 0.7 | 27 | 2.4 | 702
CC(C)(C)[C@H](NC(=O)CC(F)(F)F)C(=O)N1C[C@H]2[C@@H]([C@H]1C(=O)N[C@H](C#N)C[C@@H]1CCNC1=O)C2(C)C |  | 0.916 | 12.7 |  | 850
CC(C)[C@H](NC(=O)C(F)(F)F)C(=O)N1C[C@H]2[C@@H]([C@H]1C(=O)N[C@@H](C[C@@H]1CCNC1=O)C(=O)c1nc3ccccc3o1)C2(C)C | 18 | 2.1 | 7.3 |  | 207
CC(=O)N[C@H](C(=O)N1C[C@H]2[C@@H]([C@H]1C(=O)N[C@H](C#N)C[C@@H]1CCNC1=O)C2(C)C)C(C)(C)C | 2.8 | < 0.302 | < 7 |  | 5310
COc1ccc2nc(C(=O)[C@H](C[C@@H]3CCNC3=O)NC(=O)[C@@H]3[C@@H]4[C@H](CN3C(=O)[C@@H](NC(=O)C(F)(F)F)C(C)C)C4(C)C)sc2c1 |  | 13.8 | 20.7 |  | 611
CC(C)[C@H](NC(=O)C(F)(F)F)C(=O)N1C[C@H]2[C@@H]([C@H]1C(=O)N[C@@H](C[C@@H]1CCNC1=O)C(=O)c1nc3cc(C(F)(F)F)ccc3s1)C2(C)C |  | 8.8 | 45.3 |  | 64.8
COc1cccc2[nH]c(C(=O)N[C@@H](CC(C)C)C(=O)N[C@@H](C[C@@H]3CCNC3=O)C(=O)CO)cc12 [PF-00835231] | < 0.5 | < 0.207 | 7 | 1.7 | 
CC(C)[C@H](NS(C)(=O)=O)C(=O)N1C[C@H]2[C@@H]([C@H]1C(=O)N[C@@H](C[C@@H]1CCNC1=O)C(=O)c1nc3ccccc3s1)C2(C)C | 7 | 1.7 | 70 | 2.4 | 909
CNC(=O)N[C@H](C(=O)N1C[C@H]2[C@@H]([C@H]1C(=O)N[C@H](C#N)C[C@@H]1CCNC1=O)C2(C)C)C(C)(C)C |  | 0.62 | < 7.12 |  | 
CC(C)(C)[C@H](NS(=O)(=O)C(F)(F)F)C(=O)N1C[C@H]2[C@@H]([C@H]1C(=O)N[C@H](C#N)C[C@@H]1CCNC1=O)C2(C)C |  | 0.7 | < 7.47 |  | 179
